Measured values as given in patent US20250090505A1, “Methods for Preventing Ectopic Brain Mineralization in Alzheimer's Disease and Dementias” (Tzerma LLC, priority 2022, published 2025).

B1: TNAP: human tissue nonspecific alkaline phosphatase, element that triggers biomineralization (protein, UniProt P05186 18-501, looked up)
Alkaline phosphatase, …: LVPEKEKDPKYWRDQAQETLKYALELQKLNTNVAKNVIMFLGDGMGVSTVTAARILKGQLHHNPGEETRLEMDKFPFVALSKTYNTNAQVPDSAGTATAYLCGVKANEGTVGVSAATERSRCNTTQGNEVTSILRWAKDAGKSVGIVTTTRVNHATPSAAYAHSADRDWYSDNEMPPEALSQGCKDIAYQLMHNIRDIDVIMGGGRKYMYPKNKTDVEYESDEKARGTRLDGLDLVDTWKSFKPRYKHSHFIWNRTELLTLDPHNVDYLLGLFEPGDMQYELNRNNVTDPSLSEMVVVAIQILRKNPKGFFLLVEGGRIDHGHHEGKAKQALHEAVEMDRAIGQAGSLTSSEDTLTVVTADHSHVFTFGGYTPRGNSIFGLAPMLSDTDKKPFTAILYGNGPGYKVVGGERENVSMVDYAHNNYQAQSAVPLRHETHGGEDVAVFSKGPMAHLLHGVHEQNYVPHVMAYAACIGANLGHCAPAS

Experiments:
[1] = references 30-31; cited from earlier work
HCN-2 cells = assay: Inhibition of biomineralization (hydroxyapatite production) by HCN-2 cells, Alizarin Red staining; type: cell-based, human; conditions: for effect on alkaline phosphatase and alpha-glycerophosphate triggered biomineralization / hydroxyapatite production by HCN-2 cells, each compound alone: FIGS. 5A-5B
[2] = system: in vitro biomineralization reaction; assay: Titration of the elements that trigger the in vitro biomineralization reaction; type: cell-based; conditions: titration assays, calcium, αGP and TNAP concomitantly present
Method: It is determined herein that the biomineralization reaction is dose-dependent on calcium, alpha-glycerophosphate and alkaline phosphatase. It is known that the physiological concentration of alkaline phosphatase in the brain is 1-2 international units per liter (IU/L), which is substantially lower than alkaline phosphatase in peripheral blood serum (44 to 147 IU/L)) (35, 36). […] The minimum dose of calcium, αGP, and TNAP that promptly triggers in vitro biomineralization reaction is 0.45 mM, 1.0 mM, and 100 IU/L, respectively (22).
To measure the physiological glycerophosphate, a method to quantify this organic compound in peripheral blood serum was invented The method of quantifying alpha-glycerophosphate is disclosed in international publication WO 2021/076851, the entirety of which is hereby incorporated by reference. […] The physiological concentration of alpha-glycerophosphate varied substantially amid adult individuals with a mean value of 2.90 mM and standard deviation of 1.98 (median=2.42 mM, max=9.60 mM, and min=0.15 mM). The wide range of alpha-glycerophosphate in blood is likely attributed to personal diet, e.g., a fatty diet and gut microbiome, and physical activity because alpha-glycerophosphate is a metabolite derived from fat to energize mitochondria (37). Overall, 83% of tested samples contained alpha-glycerophosphate greater than 1.0 mM, which is sufficient to trigger biomineralization when calcium and alkaline phosphatase are concomitantly present.

| Molecule | crossing of the blood-brain barrier [1] | effect on alkaline phosphatase and alpha-glycerophosphate triggered biomineralization (HCN-2 cells) | hydroxyapatite production by HCN-2 cells, each compound alone (HCN-2 cells; in vitro) | minimum dose that promptly triggers in vitro biomineralization reaction [2] | further results |
| --- | --- | --- | --- | --- | --- |
| O=C(O)P(=O)(O)O [Foscarnet, phosphonoformic acid] | cross the blood-brain barrier | inhibitory effects | entirely cease |  | concentration of Foscarnet that can competitively inhibit biomineralization (HCN-2 cells; in vitro, HCN-2 cells, MEMα/10% FBS with αGP and TNAP, 7 days, Alizarin Red (FIGS. 5A-5B)): at least 0.02 mM |
| Cl.c1ccc([C@H]2CN3CCSC3=N2)cc1 [Levamisole, (−)-(s)-2,3,5,6-tetrahydro-6-phenylimidazo(2,1-b)thiazole mono hydrochloride] | cross the blood-brain barrier | inhibitory effects | entirely cease |  | concentration of Levamisole at which biomineralization is inhibited (HCN-2 cells; HCN-2 cells, alpha-glycerophosphate 2 mM, recombinant human TNAP 1,000 U/L): 1 mM |
| [Ca+2] [calcium] |  |  |  | 0.45 mM |  |
| O=P(O)(O)OCC(O)CO (stereo not drawn) [αGP, alpha-glycerophosphate] |  |  |  | 1.0 mM | minimum dose that promptly triggers in vitro biomineralization reaction ([2]; listed as alpha-glycerophosphate): ≥ 1.0 mM |
| B1 |  |  |  | 100 IU/L |  |
